Columns and labels:
Rattus norvegicus = assay: Oral bioavailability in Sprague-Dawley rat at 4 mg/kg by LC-MS/MS analysis; format: ADME, organism-based; conditions: in vivo
[1] = Cmax in Sprague-Dawley rat at […], iv by LC-MS/MS analysis; format: ADME, organism-based; parameters: dose 2.5 mg/kg, route intravenous; conditions: in vivo
[2] = Anticancer activity against mouse B16-F1 cells after 96 hrs by SRB assay; format: functional, cell-based; conditions: B16-F1, 96 h
[3] = AUC in Sprague-Dawley rat at 4 mg/kg, po by LC-MS/MS analysis; format: ADME, organism-based; parameters: dose 4 mg/kg, route oral; conditions: plasma
A-375 = assay: Anticancer activity against human A375 cells after 96 hrs by SRB assay; format: functional, cell-based; conditions: A-375, 96 h
[4] = Aqueous solubility of the compound in PBS at 35 ug/ml and pH 7.4 by LC/MS/MS analysis; format: physicochemical; conditions: buffer
[5] = Cmax in Sprague-Dawley rat at 4 mg/kg, po by LC-MS/MS analysis; format: ADME, organism-based; parameters: dose 4 mg/kg, route oral; conditions: in vivo
[6] = AUC in Sprague-Dawley rat at […], iv by LC-MS/MS analysis; format: ADME, organism-based; parameters: dose 2.5 mg/kg, route intravenous; conditions: plasma
LNCaP = assay: Anticancer activity against human LNCAP cells after 96 hrs by SRB assay; format: functional, cell-based
PC-3 = assay: Anticancer activity against human PC3 cells after 96 hrs by SRB assay; format: functional, cell-based; conditions: PC-3, 96 h
NCI/ADR-RES = assay: Anticancer activity against P-gp overexpressing human NCI/ADR-RES cells after 96 hrs by SRB assay; format: functional, cell-based
OVCAR-8 = assay: Anticancer activity against human OVCAR8 cells after 96 hrs by SRB assay; format: functional, cell-based; conditions: OVCAR-8, 96 h
PPC-1 = assay: Anticancer activity against human PPC1 cells after 96 hrs by SRB assay; format: functional, cell-based; conditions: PPC-1, 96 h

COc1cc(C(=O)c2csc(-c3ccc(CN)cc3)n2)cc(OC)c1OC.Cl
F (Rattus norvegicus): 0.2%
Cmax [1]: 3790 ng/mL
IC50 [2]: 38 nM
AUC [3]: 6.67 ng·h/mL
IC50 (A-375): 41 nM
solubility [4]: soluble
Cmax [5]: 3.2 ng/mL
AUC [6]: 2320 ng·h/mL
IC50 (LNCaP): 13 nM
IC50 (PC-3): 80 nM
IC50 (NCI/ADR-RES): 11 nM
IC50 (OVCAR-8): 26 nM
IC50 (PPC-1): 34 nM

Reference: ChEMBL document CHEMBL1828586 (J Med Chem, 2011)
